Measurements as given in publication PMC10447463, “Data-mining unveils structure–property–activity correlation of viral infectivity enhancing self-assembling peptides” (Nature Communications, 2023).
Read-outs that look alike come from different tables or passages of the source.

Legend:
[1] = type: physicochemical; design: key to Fibril / Fibril Formation / TEM 2cat / Fibril: 1 = fibrils present; 0 non-fibrillar structures; conditions: for Fibril / Fibril Formation: TEM, 1 mg/mL, uranyl acetate stain, qualitative
[2] = Zeta-potential measurement; type: physicochemical; conditions: for Zeta-pot. / mV: zeta potential of peptide, Fig S15 source data; for Zeta pot. / mV: 1 mg/mL in PBS pH 7.4 from 10 mg/mL DMSO stock, 1 d RT, 60 µL diluted in 600 µL 1 mM KCl, Zetasizer Nano ZS, Smoluchowski, mean of triplicate
Outline: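 Samples: 1 mg/mL in PBS pH 7.4 (from DMSO), 1 d at RT, then diluted in 1 mM KCl immediately before measurement. Triplicates, two independent runs averaged.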

[3] = Turbidity, derived count rate of scattered light; type: physicochemical; conditions: for Count Rate / kcps: derived count rate of scattered light at 633 nm, 173°, from zeta-potential measurement, 0.1 mg/mL in 1 mM KCl after 1 d at 1 mg/mL in PBS, turbidity / microscopic aggregation, mean of triplicate
Outline: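 One-day room-temperature aggregation at 1 mg/mL in PBS (pH 7.4) preceded measurement; samples then went into 1 mM KCl. Triplicates per sample, two independent experiments averaged.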

[4] = tested on: HIV-1 infection of TZM-bl cells; experiment: HIV-1 infectivity enhancement assay, β-galactosidase luminescence; type: cell-based
[5] = log10 of derived count rate of scattered light, Figure 6C
[6] = logarithm of count rate in kcps
[7] = log10 of infection relative to EF-C, Figure 6C
[8] = n-fold infection vs virus only, relative to that of EF-C, 1.3 µM peptide
[9] = derived count rate of scattered light
[10] = Feb2021; figures match the 1.3 µM column
[11] = Feb2021; infectivity relative to virus only
[12] = Feb2021; log10 of infectivity relative to EF-C
[13] = Feb2021; n-fold infectivity relative to EF-C
[14] = infectivity class (low / medium / high) of the peptide in the sequence-pattern analysis, Fig. S22-A4; class limits not given
[15] = log10 of HIV-1 infection of TZM-bl cells relative to EF-C; Fig S15 source data; asymmetric std dev errors
[16] = HIV-1 infection relative to EF-C; Fig 23 plot, panels A and B; mean of 3 values
[17] = HIV-1 infection relative to EF-C; Fig 23 plot, single data point, replicate 2
[18] = HIV-1 infection relative to EF-C; Fig 23 plot, single data point, replicate 3
[19] = derived count rate from zeta measurement, mean
[20] = derived count rate of scattered light, mean, std deviation in separate column
[21] = Feb2021 run; infectivity n-fold relative to virus alone
[22] = Feb2021 run; log10 of infectivity relative to EF-C
[23] = Feb2021 run; n-fold infectivity relative to EF-C
[24] = infectivity class (low / medium / high) of each library peptide; main list in c1-c6, same classes repeated in sub-lists of sequences containing the hydrophobicity/charge patterns P+,H0,P+,H0,P0,H0,P0; P+,H0,P0,H0,P0,H0,P0; P+,H0,P0,H0
[25] = infectivity enhancement relative to EF-C (=1); Feb2021 run
[26] = infectivity n-fold relative to virus only; Feb2021 run
[27] = log10 of infectivity relative to EF-C; Feb2021 run
[28] = log10 of infection relative to EF-C, Figure 7B

| Substance | Fibril / Fibril Formation [1] | Count Rate / kcps [3] | Inf. rel. EF-C [4, 8] | TEM: 1= fibrils, 0= aggregates (micelle), 0.5 = aggregates and fibrils, -1 = nothing obersved, STD prep [1] | Zeta Pot. / mV [2] | Zeta category ( +1 = if > 4 mV;-1 = if < -4 mV; 0 = -4mV to 4 mV) [2] | Zeta-pot. / mV [2] | Zeta Count Rate Category ([3]; category 1 / 0, no key given) | Zeta Count Rate / kcps [3, 9] | Absolute Infectivity / RLU /s (Feb2021) [4, 10] | n-fold to virus (Feb2021) [4, 11] | Log10 of Rel to EFC (Feb2021) [4, 12] | Rel-to EFC (Feb-2021) [4, 13] | infectivity [4, 14] | Log10 Inf. rel. to EF-C [4, 15] | Zeta pot. / mV [2] | other results |
| --- | --- | --- | --- | --- | --- | --- | --- | --- | --- | --- | --- | --- | --- | --- | --- | --- | --- |
| RFWFWFW | 0 | 30037.33333 kcps | 0.32 |  |  |  |  |  |  |  |  |  |  |  |  |  | Zeta-Potential / mV ([2]; mean, Figure 6C): 13.63 mV; Log10 Count Rate [3, 5]: 4.478; Log10 Count Rate [3, 6]: 4.478; Log10 Infection Rel EF-C [4, 7]: -0.495 |
| HHHHKAKAKAKAWWWW [TM8] |  |  |  | 0.5 | 17.4 mV | 1 (+1 = if > 4 mV) | 17.4 mV | 1 | 658.9 kcps | 3233 RLU /s | 3.76 | -1.048 | 0.08948 | low | -1.048 |  |  |
| CRLRVGVS | 0 | 35.07 kcps | 0.04 |  |  |  |  |  |  |  |  |  |  |  |  | 10.53 mV | Zeta-Potential / mV ([2]; mean, Figure 6C): 10.53 mV; Log10 Count Rate [3, 5]: 1.545; Log10 Count Rate [3, 6]: 1.545; Inf. rel. EF-C [4, 16]: 0.04346; Inf. rel. EF-C ([4]; HIV-1 infection relative to EF-C; Fig 23 plot, single data point, replicate 1): 0.06547; Inf. rel. EF-C [4, 17]: 0.03045; Inf. rel. EF-C [4, 18]: 0.03448; Log10 Infection Rel EF-C [4, 7]: -1.362 |
| KIKIQIII [TG7] |  |  |  | 1 | 19.8 mV | 1 (+1 = if > 4 mV) | 19.8 mV | 0 | 94.97 kcps | 8260 RLU /s | 14.84 | -0.452 | 0.3531 |  | -0.4521 |  | Zeta Pot. / mV ([2]; mean, Std in separate column): 19.8 mV; Zeta Count Rate / kcps [3, 19]: 94.97 kcps; Zeta Count Rate / kcps [3, 20]: 94.97 kcps; Zeta Count Rate Category ([3]; key not given): 0; n-fold to virus (Feb2021) [4, 21]: 14.84; Log10 of Rel to EFC (Feb2021) [4, 22]: -0.452; Rel-to EFC (Feb-2021) [4, 23]: 0.3531; infectivity [4, 24]: medium; Rel-to EFC (Feb-2021) [4, 25]: 0.3531; n-fold to virus (Feb2021) [4, 26]: 14.84; Log10 of Rel to EFC (Feb2021) [4, 27]: -0.452 |
| HHHHKAKAKAKAYYYY [TM10] |  |  |  | 0 | 7.03 mV | 1 (+1 = if > 4 mV) | 7.03 mV | 1 | 240.9 kcps | 203.3 RLU /s | 0.5495 | -1.883 | 0.01308 | low | -1.883 |  |  |
| NKGAII [reference compound] | 0 | 68 kcps | 0.06 |  |  |  |  |  |  |  |  |  |  |  |  | -9.5 mV | Zeta-Potential / mV ([2]; mean, Figure 7B): -9.46 mV; Log10 Infection Rel EF-C [4, 28]: -1.2 |
| MKVIFLKDVKG [reference compound] | 1 | 137 kcps | 0.12 |  |  |  |  |  |  |  |  |  |  |  |  | 9.6 mV | Zeta-Potential / mV ([2]; mean, Figure 7B): 9.62 mV; infectivity enhancement, in words ([4]; fibril-forming peptides with positive zeta-potential, low count rate): do not enhance infectivity; Log10 Infection Rel EF-C [4, 28]: -0.93 |
| KVKVKVQV [JG14 / TG14] |  |  |  | 0.5 | -3.41 mV | 0 (0 = -4mV to 4 mV) | -3.41 mV | 0 | 94.37 kcps | 466.7 RLU /s | 0.7254 | -1.763 | 0.01726 |  | -1.763 |  | infectivity [4, 24]: low |
| KIKIKIKI [TM13] |  |  |  | 0 |  | 1 (+1 = if > 4 mV) | 5.46 mV |  |  |  |  |  |  | low | -1.487 |  | Zeta Pot. / mV ([2]; mean, Std in separate column): 5.46 mV; Zeta Count Rate / kcps [3, 20]: 155.1 kcps; n-fold to virus (Feb2021) [4, 21]: 1.369; Log10 of Rel to EFC (Feb2021) [4, 22]: -1.487; Rel-to EFC (Feb-2021) [4, 23]: 0.03258 |
| IIIK [reference compound] | 0 | 26 kcps | 0.05 |  |  |  |  |  |  |  |  |  |  |  |  | -3.8 mV | Zeta-Potential / mV ([2]; mean, Figure 7B): -3.82 mV; Log10 Infection Rel EF-C [4, 28]: -1.29 |
| CRLSLSLS | 1 | 1697 kcps | 0.31 |  |  |  |  |  |  |  |  |  |  |  |  | 8.977 mV | Zeta-Potential / mV ([2]; mean, Figure 6C): 8.977 mV; Log10 Count Rate [3, 5]: 3.23; Log10 Count Rate [3, 6]: 3.23; Inf. rel. EF-C [4, 16]: 0.3134; Inf. rel. EF-C [4, 17]: 0.2799; Inf. rel. EF-C [4, 18]: 0.2877; Log10 Infection Rel EF-C [4, 7]: -0.5039 |
| KYFIL [reference compound] | 0 | 18903 kcps | 0.07 |  |  |  |  |  |  |  |  |  |  |  |  | -7.2 mV | Zeta-Potential / mV ([2]; mean, Figure 7B): -7.18 mV; Log10 Infection Rel EF-C [4, 28]: -1.14 |
| KVKVQVV [TG2] |  |  |  | 0.5 | -7.92 mV | -1 (-1 = if < -4 mV) | -7.92 mV | 0 | 27.73 kcps | 213.3 RLU /s | 0.3832 | -2.04 | 0.009121 | low | -2.04 |  | Zeta Pot. / mV ([2]; mean, Std in separate column): -7.92 mV; Zeta Count Rate / kcps [3, 19]: 27.73 kcps; Zeta Count Rate Category ([3]; key not given): 0; infectivity [4, 24]: low; Rel-to EFC (Feb-2021) [4, 25]: 0.009121; n-fold to virus (Feb2021) [4, 26]: 0.3832; Log10 of Rel to EFC (Feb2021) [4, 27]: -2.04 |
| EIEIQINM [TM95 / (TM75)] |  |  |  | 1 |  | -1 (-1 = if < -4 mV) | -23.33 mV |  |  |  |  |  |  | low | -1.44 |  | Zeta Pot. / mV ([2]; mean, Std in separate column): -23.33 mV; Zeta Count Rate / kcps [3, 19]: 134 kcps; Zeta Count Rate Category ([3]; key not given): 1; Rel-to EFC (Feb-2021) [4, 25]: 0.03629; n-fold to virus (Feb2021) [4, 26]: 1.525; Log10 of Rel to EFC (Feb2021) [4, 27]: -1.44 |
| KLKLKLQL [TG16] |  |  |  | 1 | 8.39 mV | 1 (+1 = if > 4 mV) | 8.39 mV | 0 | 42.87 kcps | 2097 RLU /s | 4.111 | -1.009 | 0.09784 | low | -1.009 |  | infectivity [4, 24]: low |
| CKIKIWIW | 1 | 3321 kcps | 0.86 |  |  |  |  |  |  |  |  |  |  |  |  |  | Zeta-Potential / mV ([2]; mean, Figure 6C): 19.13 mV; Log10 Count Rate [3, 5]: 3.521; Log10 Count Rate [3, 6]: 3.521; Log10 Infection Rel EF-C [4, 7]: -0.06382 |
| RGDKIKIQINMC [psis29] |  |  |  | 1 |  | 1 (+1 = if > 4 mV) | 12.2 mV |  |  |  |  |  |  | high | 0.02911 |  | TEM: 1= fibrils, 0= aggregates (micelle), 0.5 = aggregates and fibrils, -1 = nothing obersved, STD prep ([1]; FigS26): 1; Zeta category ( +1 = if > 4 mV;-1 = if < -4 mV; 0 = -4mV to 4 mV) ([2]; FigS26): 1 (+1 = if > 4 mV); Zeta Pot. / mV ([2]; mean, Std in separate column): 12.2 mV; Zeta Count Rate / kcps [3, 19]: 1404 kcps; Zeta Count Rate / kcps [3, 20]: 1404 kcps; Zeta Count Rate Category ([3]; key not given): 1; n-fold to virus (Feb2021) [4, 21]: 44.93; Log10 of Rel to EFC (Feb2021) [4, 22]: 0.02911; Rel-to EFC (Feb-2021) [4, 23]: 1.069; infectivity [4, 24]: high; Rel-to EFC (Feb-2021) [4, 25]: 1.069; n-fold to virus (Feb2021) [4, 26]: 44.93; Log10 of Rel to EFC (Feb2021) [4, 27]: 0.02911 |
